Values after ≈ are worked out from the molar mass of the structure shown. Counter-ions that a name gives are not always drawn. Like-named read-outs stand apart in the source and are kept apart here.
Columns and labels:
[1] = system: MRSA; experiment: Minimum Inhibitory Concentration (MIC) and Minimum Bactericidal Concentration (MBC) assays; type: cell-based, Methicillin-resistant Staphylococcus aureus; conditions: compound alone, no antibiotic; for MIC: overnight (18 hrs)
Experimental: (§1) MIC was defined by the lowest concentration of the test compound that inhibits visible growth of pathogen of interest. The optical density of the pathogen of interest culture was measured by OD600.
(§2) MBC was determined colony forming units (CFUs) enumeration by serially diluting and plating bacterial cultures on BHI plates.
(§3) Thus, no antibiotic was used in Table 2.

[2] = system: E. faecalis; experiment: MIC and MBC assays; type: cell-based; conditions: Enterococcus faecalis, compound alone, no antibiotic; for MIC: overnight (18 hrs)
Experimental: as §1, §2, §3

[3] = system: Streptococcus; experiment: MIC and MBC assays; type: cell-based; conditions: compound alone, no antibiotic
Experimental: as §1, §2, §3

[4] = system: Strep. pyogenes; experiment: MIC and MBC assays; type: cell-based; conditions: Streptococcus pyogenes, compound alone, no antibiotic
Experimental: (§4) […]. MIC was defined by the lowest concentration of the test compound that inhibits visible growth of pathogen of interest. The optical density of the pathogen of interest culture was measured by OD600.
(§5) […]. MBC was determined colony forming units (CFUs) enumeration by serially diluting and plating bacterial cultures on BHI plates.
(§6) . Thus, no antibiotic was used in Table 2.

[5] = system: Staph. aureus; experiment: MIC and MBC assays; type: cell-based; conditions: Staphylococcus aureus, compound alone, no antibiotic; for MIC: overnight (18 hrs)
Experimental: as §4, §5, §6

[6] = Staphylococcus aureus, 18 h, read-out: MIC

Row | SMILES | MIC [1, 6] [µM] | MIC [2] [µM] | MBC [4] [µM] | other results
1 | CCCCOc1ccc(-c2sc3c(C4CC4)c(Cc4cccc5ccccc45)cc(=O)n3c2C(=O)O)cc1 [Example 13, 8-(p-Butoxyphenyl)-5-cyclopropyl-4-[(1-naphthyl)methyl]-2-oxo-7-thia-1-azabicyclo[4.3.0]nona-3,5,8-triene-9-carboxylic acid] | 31 (≈ 16.2 µg/mL) | 300 (≈ 157 µg/mL) | – | MBC ([1]; Staphylococcus aureus): 25 µM (≈ 13.1 µg/mL); MBC [3]: 3 µM (≈ 1.57 µg/mL)
2 | CCCCCCn1cc(-c2sc3c(OC)c(Cc4cccc5ccccc45)cc(=O)n3c2C(=O)O)nn1 [Example 16, 8-(1-Hexyl-1H-1,2,3-triazol-4-yl)-5-methoxy-4-[(1-naphthyl)methyl]-2-oxo-7-thia-1-azabicyclo[4.3.0]nona-3,5,8-triene-9-carboxylic acid imidazole salt] | – | – | – | MIC [1]: 200/nd uM
3 | CCCCCCCOc1ccc(-c2sc3c(C4CC4)c(Cc4cccc5ccccc45)cc(=O)n3c2C(=O)O)cc1C [Example 3, 5-Cyclopropyl-8-[4-(heptyloxy)-3-methyl-phenyl] 4-[(1-naphthyl)methyl]-2-oxo-7-thia-1-azabicyclo[4.3.0]nona-3,5,8-triene-9-carboxylic acid] | 167 (≈ 96.8 µg/mL) | 183 (≈ 106 µg/mL) | – | MBC [2]: 100 µM (≈ 58 µg/mL); MBC [3]: 50 µM (≈ 29 µg/mL)
4 | COCCOc1ccc(-c2sc3c(C4CC4)c(Cc4cccc5ccccc45)cc(=O)n3c2C(=O)O)cc1C [Example 18, 5-Cyclopropyl-8-[4-(2-methoxyethoxy)-3-methyl-phenyl]-4-[(1-naphthyl)methyl]-2-oxo-7-thia-1-azabicyclo[4.3.0]nona-3,5,8-triene-9-carboxylic acid] | > 25 | – | – | –
5 | COCCOc1ccc(-c2sc3c(OC)c(Cc4cccc5ccccc45)cc(=O)n3c2C(=O)O)cc1C [Example 17, 5-Methoxy-8-[4-(2-methoxyethoxy)-3-methyl-phenyl]-4-[(1-naphthyl)methyl]-2-oxo-7-thia-1-azabicyclo[4.3.0]nona-3,5,8-triene-9-carboxylic acid] | > 25 | – | – | –
6 | O=C(O)c1c(-c2ccccc2)sc2c(C3CC3)c(Cc3cccc4ccccc34)cc(=O)n12 [Example 29, 5-Cyclopropyl-4-[(1-naphthyl)methyl]-2-oxo-8-phenyl-7-thia-1-azabicyclo[4.3.0]nona-3,5,8-triene-9-carboxylic acid] | 250 (≈ 113 µg/mL) | – | 25 (≈ 11.3 µg/mL) | MIC ([4]; overnight (18 hrs)): 25 µM (≈ 11.3 µg/mL); MBC [5]: 200 µM (≈ 90.3 µg/mL); MIC [5]: 100 µM (≈ 45.2 µg/mL); MBC ([1]; Staphylococcus aureus): 200 µM (≈ 90.3 µg/mL)
7 | CCCCCCn1cc(-c2sc3c(OC)c(Cc4cccc5ccccc45)cc(=O)n3c2C(=O)O)nn1 [Example 15, 8-(1-Hexyl-1H-1,2,3-triazol-4-yl)-5-methoxy-4-[(1-naphthyl)methyl]-2-oxo-7-thia-1-azabicyclo[4.3.0]nona-3,5,8-triene-9-carboxylic acid] | 100 (≈ 51.7 µg/mL) | – | – | –
8 | Cc1ccc(-c2sc3c(C4CC4)c(Cc4cccc5ccccc45)cc(=O)n3c2C(=O)O)cc1 [Example 31, 5-Cyclopropyl-4-[(1-naphthyl)methyl]-2-oxo-8-(p-tolyl)-7-thia-1-azabicyclo[4.3.0]nona-3,5,8-triene-9-carboxylic acid] | 50 (≈ 23.3 µg/mL) | – | 50 (≈ 23.3 µg/mL) | MBC [5]: 100 µM (≈ 46.6 µg/mL); MIC [5]: 50 µM (≈ 23.3 µg/mL); MBC ([1]; Staphylococcus aureus): 100 µM (≈ 46.6 µg/mL)
9 | C=CCCCCOc1ccc(-c2sc3c(OC)c(Cc4cccc5ccccc45)cc(=O)n3c2C(=O)O)cc1C [Example 25, 8-[4-(5-Hexenyloxy)-3-methyl-phenyl]-5-methoxy-4-[(1-naphthyl)methyl]-2-oxo-7-thia-1-azabicyclo[4.3.0]nona-3,5,8-triene-9-carboxylic acid] | 45 (≈ 24.9 µg/mL) | > 100 | – | –
10 | O=C(O)c1c(-c2ccoc2)sc2c(C3CC3)c(Cc3cccc4ccccc34)cc(=O)n12 [Example 36, 5-Cyclopropyl-8-(3-furyl)-4-[(1-naphthyl)methyl]-2-oxo-7-thia-1-azabicyclo[4.3.0]nona-3,5,8-triene-9-carboxylic acid] | – | – | 25 (≈ 11 µg/mL) | –
11 | O=C(O)c1c(-c2ccc3[nH]ccc3c2)sc2c(C3CC3)c(Cc3cccc4ccccc34)cc(=O)n12 [Example 32, 5-Cyclopropyl-8-(1H-indol-5-yl)-4-[(1-naphthyl)methyl]-2-oxo-7-thia-1-azabicyclo[4.3.0]nona-3,5,8-triene-9-carboxylic acid] | 200 (≈ 98.1 µg/mL) | – | 50 (≈ 24.5 µg/mL) | MBC ([1]; Staphylococcus aureus): > 400 µM; MBC [2]: > 400 µM
12 | O=C(O)c1c(-c2ccco2)sc2c(C3CC3)c(Cc3cccc4ccccc34)cc(=O)n12 [Example 35, 5-Cyclopropyl-8-(2-furyl)-4-[(1-naphthyl)methyl]-2-oxo-7-thia-1-azabicyclo[4.3.0]nona-3,5,8-triene-9-carboxylic acid] | – | – | 50 (≈ 22.1 µg/mL) | –
13 | C=CCOc1ccc(-c2sc3c(OC)c(Cc4cccc5ccccc45)cc(=O)n3c2C(=O)O)cc1C [Example 21, 8-[4-(Allyloxy)-3-methyl-phenyl]-5-methoxy-4-[(1-naphthyl)methyl]-2-oxo-7-thia-1-azabicyclo[4.3.0]nona-3,5,8-triene-9-carboxylic acid] | 19 (≈ 9.72 µg/mL) | > 100 | – | –
14 | COc1c(Cc2cccc3ccccc23)cc(=O)n2c(C(=O)O)c(-c3ccc(OCCC=C(C)C)c(C)c3)sc12 [Example 24, 5-Methoxy-8-[4-(4-methyl-3-pentenyloxy)-3-methyl-phenyl]-4-[(1-naphthyl)methyl]-2-oxo-7-thia-1-azabicyclo[4.3.0]nona-3,5,8-triene-9-carboxylic acid] | 45 (≈ 24.9 µg/mL) | > 100 | – | –
15 | C#CCCCCOc1ccc(-c2sc3c(OC)c(Cc4cccc5ccccc45)cc(=O)n3c2C(=O)O)cc1C [Example 22, 8-[4-(5-Hexynyloxy)-3-methyl-phenyl]-5-methoxy-4-[(1-naphthyl)methyl]-2-oxo-7-thia-1-azabicyclo[4.3.0]nona-3,5,8-triene-9-carboxylic acid] | 6 (≈ 3.31 µg/mL) | > 100 | – | –
16 | O=C(O)c1c(-c2ccsc2)sc2c(C3CC3)c(Cc3cccc4ccccc34)cc(=O)n12 [Example 34, 5-Cyclopropyl-4-[(1-naphthyl)methyl]-2-oxo-8-(3-thienyl)-7-thia-1-azabicyclo[4.3.0]nona-3,5,8-triene-9-carboxylic acid] | – | – | 25 (≈ 11.4 µg/mL) | MBC [5]: 400 µM (≈ 183 µg/mL); MBC ([1]; Staphylococcus aureus): 250 µM (≈ 114 µg/mL)
17 | O=C(O)c1c(-c2ccc3c(c2)OCCO3)sc2c(C3CC3)c(Cc3cccc4ccccc34)cc(=O)n12 [Example 33, 5-Cyclopropyl-8-(1,4-dioxa-2,3-dihydronaphth-6-yl)-4-[(1-naphthyl)methyl]-2-oxo-7-thia-1-azabicyclo[4.3.0]nona-3,5,8-triene-9-carboxylic acid] | – | > 400 | 20 (≈ 10.2 µg/mL) | MBC [5]: 400 µM (≈ 204 µg/mL)
18 | COc1c(Cc2cccc3ccccc23)cc(=O)n2c(C(=O)O)c(-c3ccc(OCC4CC4)c(C)c3)sc12 [Example 26, 8-[4-(Cyclopropylmethoxy)-3-methyl-phenyl]-5-methoxy-4-[(1-naphthyl)methyl]-2-oxo-7-thia-1-azabicyclo[4.3.0]nona-3,5,8-triene-9-carboxylic acid] | 12 (≈ 6.31 µg/mL) | > 100 | – | –
19 | CCCCCCOc1ccc(-c2sc3c(N)c(Cc4cccc5ccccc45)cc(=O)n3c2C(=O)O)cc1C [Example 27, 5-Amino-8-[4-(hexyloxy)-3-methyl-phenyl]-4-[(1-naphthyl)methyl]-2-oxo-7-thia-1-azabicyclo[4.3.0]nona-3,5,8-triene-9-carboxylic acid] | 25 (≈ 13.5 µg/mL) | – | – | –

Reference: patent US12472168B2, “Ring-fused thiazolino 2-pyridones, methods for preparation thereof and their use in the treatment and/or prevention of a disease involving gram-positive bacteria” (Quretech Bio AB, priority 2017, dated 2025)
